Source: patent US9617324B2, “Ameliorating agent for blood-brain barrier dysfunction” (Nagasaki University, priority 2012, dated 2017)
Entries after “also recorded” stand apart in the source; their conditions may differ. Where two headings read alike, the source gives them in different places. No end group written: not given here.

How the values were obtained:
proMMP-9 = assay: Gelatin zymography of proMMP-9 activity after retinal ischemia; type: in vivo, mouse; conditions: 1 pmol
Text: It is known that a tight junction protein, occluding, is degraded by metalloproteinases (MMP) whose expression is increased by ischemia (J Cereb Blood Flow Metab, 2007. 27(4): p. 697-709). It is believed that MMP-9, in particular, plays a primary role in a failure of a blood-organ barrier by ischemia (J Cereb Blood Flow Metab, 2000. 20(12): p. 1681-9).
The expression level of MMP-9 is commonly low and the expression is derived by various stimuli by ischemia.

[1] = test system: thrombotic cerebral infarction PIT model
[2] = test system: tMCAO model (ischemia for 4 hours), tPA-induced cerebral hemorrhage
Description: Mice were anesthetized with 3% isoflurane (Escain (registered trademark), Mylan Seiyaku Ltd., Tokyo, Japan) (Small animal anesthetizer MK-A100, Muromachi Kikai Co., Ltd., Tokyo, Japan). On a constant-temperature table at 37° C. (Ikemoto Scientific Technology Co., Ltd., Tokyo, Japan), the skin in the pharyngeal region is cut lengthwise into about 2 cm with scissors. The skin was drawn to the right using a hard silk thread (hard No. 8, Natsume Seisakusho Co., Ltd.) to secure a visual field. Using a stereoscopic microscope, the left common carotid artery which is located on the left side of the trachea is secured with a hard silk thread while exfoliating connective tissue, nerves and the like. By following the common carotid artery upward, the artery is separated into the internal carotid artery and the external carotid artery, and the external carotid artery on the left near side is tightly tied at two points with a soft silk thread and the space between the points is cut. A thin vessel extending upward from the internal carotid artery is secured with a soft silk thread. The soft silk thread and hard silk thread are strongly drawn to stop blood flow and an incision is made in the internal carotid artery with scissors. From that, an obturator is inserted 1 to 1.5 cm and the middle cerebral artery is occluded. The internal carotid artery was tied together with the obturator using a soft silk thread to fix the obturator. A soft silk thread is passed under the hard silk thread drawing and the common carotid artery is tied thereby on the near side of the hard silk thread, and the hard silk thread is then removed. The breath is sutured at two points with a soft silk thread. In the case of the model of transient middle cerebral artery occlusion (tMCAO) of the present problem, anesthesia was applied to the mice with 3% isoflurane again after an hour or 4 hours on a constant-temperature table at 37° C., and the soft silk thread suturing the breath is untied to open the breath. The soft silk thread tying the internal carotid artery was loosened and the obturator was withdrawn, and the internal carotid artery was immediately tied again.

[3] = test system: tMCAO model (ischemia for 4 hours), tPA-induced motor dysfunction; assay: tMCAO for four hours with tPA: clinical score and mortality after a day; type: in vivo, mouse; conditions: for death of mice: 10 mg/kg peptide with tPA after 4 hours of tMCAO ischemia
Description: After tMCAO for four hours, the clinical score and mortality rate were evaluated after a day (FIG. 8). […] The tMCAO for four hours corresponds to the state after 3 hours from the onset of ischemic diseases.
(§1) To evaluate the degree of motor function disorders associated with cerebral ischemia, the neurological scores (Clinical Scores) according to the following definition were used. In addition, two grade evaluation was carried out using numerical values 1 to 4 (when scores 1 and 2 were shown, 1.5 was used).
(§2) 1: motor function disorders of the right front limb, 2: one-directional behavior, 3: unable to hold the position and incline, 4: disappearance of spontaneous movement, and 5: death.

[4] = test system: thrombotic cerebral infarction PIT model; assay: PIT model: damaged cerebral region by TTC staining; type: in vivo, mouse; conditions: for damaged cerebral region by TTC staining: second Example 13
[5] = test system: model mice of cerebral ischemia (tMCAO); assay: tMCAO (ischemia for an hour, reperfusion) model, clinical scores of motor dysfunction; type: in vivo, mouse; conditions: for protective effect on motor dysfunction: i.v. after an hour after ischemia, 1 to 10 mg/kg
Description: The model mice of cerebral ischemia produced by left middle cerebral artery occlusion in C57BL/J6 mice were maintained for an hour, followed by reperfusion. P30 (1 mg/kg or 3 mg/kg) or P6 (1 mg/kg) was administered into the caudal vein after an hour of reperfusion. Thereafter, the course of the mice was observed every 24 hours to evaluate motor function and existence. The clinical scores showing motor dysfunction are evaluated using the following five grades: 1: unable to completely extend the right front limb, 2: clockwise circling behavior, 3: unable to hold the position and incline to the right, 4: disappearance of spontaneous movement, and 5: death.
In FIG. 5, the data indicated by white squire indicate values when 0.1% DMSO in PBS (vehicle) was administered into the caudal vein in an amount of 100 μl/10 g after an hour of tMCAO for an hour. […] Black circle and black rhombus in the upper graph indicate the results of 1 mg/kg and 3 mg/kg P30 intravenous (i.v.) administration, respectively, and black circle in the lower graph indicates the results of 1 mg/kg P6 intravenous (i.v.) administration.
as §1, §2

[6] = second Example 13, peptide in combination with tPA, peptide dose not given
[7] = peptide in combination with tPA, peptide dose not given

“Ac-NEVDEE-NH2 [Peptide F, N-acetyl-P6-amide]” was tested, and the “increase in activity of proMMP-9 by ischemia” value (proMMP-9) was “effect equal to that of P6” and the Clinical score [1, 6] was 1.2±0.2.
NEVDEE [Peptide P6, NEVDEE] was tested, and the cerebral hemorrhage ([2]; mouse, in vivo) was “trend to exacerbate cerebral hemorrhage”.
In the case of NEVDEE-NH2 [Peptide E, NEVDEE-NH2], the death of mice [3] is reported as “all mice were died”.
NEVDQE [Peptide A, NEVDQE] was tested, and the “hemorrhage in the cerebral cortex region” value ([2]; mouse, in vivo, iv, 1 mg/kg) was 0.09±0.01 mm^2, the “hemorrhage in the cerebral cortex region” value ([2]; mouse, in vivo, iv, 3 mg/kg) was 0.06±0.01 mm^2 and the “hemorrhage in the cerebral cortex region” value ([2]; mouse, in vivo, iv, 10 mg/kg) was 0.08±0.01 mm^2.
With “Peptide L: P6 derivative peptide (NEIDEE)” the Clinical score [1, 6] was 1.3±0.2 and the “damaged cerebral region by TTC staining” value [4, 7] was 46±5.6%.
With “Peptide P: P6 derivative peptide (EEVNEE)” the Clinical score [1, 6] was 1.1±0.1 and the “damaged cerebral region by TTC staining” value [4, 7] was 47±5.1%.
“Peptide Q: P6 derivative peptide (EEVDQE)” was tested, and the Clinical score [1, 6] was 1.7±0.5 and the “damaged cerebral region by TTC staining” value [4, 7] was 55±1.4%.
For “Peptide R: P6 derivative peptide (EEVDQE)”, the Clinical score [1, 6] was 1.1±0.1 and the “damaged cerebral region by TTC staining” value [4, 7] was 54±4.5%.
With “Peptide S: P6 derivative peptide (EEVDEE)” the Clinical score [1, 6] was 1.1±0.2 and the “damaged cerebral region by TTC staining” value [4, 7] was 51±5.7%.
With “pEEVDEE (not fully specified (residue 1); listed as Homo sapiens) [Peptide D, P6 derivative peptide]” the Clinical score [1, 6] was 1±0, the “damaged cerebral region by TTC staining” value [4, 7] was 52±7.2% and the death of mice [3] was “all mice were died”. For the same substance, the “protective effect on motor dysfunction” value [5] was “not as good as that of Peptide A and Peptide B”.
“pEEVNEE (not fully specified (residue 1); listed as Homo sapiens) [Peptide B, P6 derivative peptide]” was tested, and the tPA-induced cerebral hemorrhage ([2]; 10 mg/kg peptide coadministered with tPA) was “did not have an influence”, the Clinical score [1, 6] was 1±0 and the “damaged cerebral region by TTC staining” value [4, 7] was 42±6.1%. For the same substance, the “tPA-induced exacerbation of motor dysfunction” value ([3]; 10 mg/kg peptide coadministered i.v. with tPA, 24 hours after ischemia) was “tended to inhibit”, the “protective effect on motor dysfunction” value [5] was “dose-dependently protective effect on motor dysfunction; also recorded: high protective activity” and the “dose showing the (greatest) protective effect on motor dysfunction” value ([5]; i.v., tMCAO 60 min ischemia) was 10 mg/kg.
With “tPA: thrombolytic agent, tissue plasminogen activator, purchased from Kyowa Hakko Kirin Co., Ltd. [reference compound]” the hemorrhagic region ([2]; mouse, in vivo, iv, 10 mg/kg) was 0.7±0.2 mm^2, the Clinical score ([1]; Example 12, tPA-alone after 6 hours of PIT treatment) was 1.5±0.2 and the Clinical score ([1]; second Example 13, tPA alone after 6 hours of PIT treatment) was 1.4±0.1. For the same substance, the “damaged cerebral region by TTC staining” value ([4]; tPA alone after 6 hours of PIT treatment) was 44±2.6%, the “protective effect (infarct region)” value ([4]; tPA administered after 6 hours of ischemia) was “the protective effect was not confirmed” and the infarct region ([4]; tPA treatment after an hour after thrombus formation) was “significant decrease in the infarct region”. For the same substance, the “protective effect (infarct region)” value ([4]; tPA treatment time delayed (2 to 4 hours)) was “protective effect was reduced”, the “mortality rate after a day of ischemia” value ([3]; 10 mg/kg tPA alone) was 35.7% and the “motor dysfunction (clinical score) after a day” value ([3]; 10 mg/kg tPA alone, immediately before reperfusion) was “deteriorated”. For the same substance, the “motor dysfunction score after a day” value ([3]; 10 mg/kg tPA treatment, tMCAO ischemia for 4 hours, score 2 without tPA) was 3.5.
